Reference: PubChem BioAssay (NCI)
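Test compounds were applied to cells in 96-well plates for 48 hours at 5 doses. TGI marks complete inhibition of growth.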

Experiments:
Assay in all cases: growth of human tumour cells (NCI), 48 h
HL-60(TB) leukemia = system: HL-60(TB) leukemia
COLO 205 colon = system: COLO 205 colon
DU-145 prostate = system: DU-145 prostate
SF-268 CNS = system: SF-268 CNS
OVCAR-4 ovarian = system: OVCAR-4 ovarian
SNB-75 CNS = system: SNB-75 CNS
OVCAR-5 ovarian = system: OVCAR-5 ovarian
IGROV1 ovarian = system: IGROV1 ovarian
CCRF-CEM leukemia = system: CCRF-CEM leukemia
UACC-257 melanoma = system: UACC-257 melanoma
UACC-62 melanoma = system: UACC-62 melanoma
LOX IMVI melanoma = system: LOX IMVI melanoma
M14 melanoma = system: M14 melanoma
UO-31 renal = system: UO-31 renal
HT29 colon = system: HT29 colon
RXF 393 renal = system: RXF 393 renal
MDA-N = system: MDA-N
PC-3 prostate = system: PC-3 prostate
A498 renal = system: A498 renal
OVCAR-3 ovarian = system: OVCAR-3 ovarian
HCT-15 colon = system: HCT-15 colon
HCT-116 colon = system: HCT-116 colon
TK-10 renal = system: TK-10 renal
T-47D breast = system: T-47D breast
SK-MEL-2 melanoma = system: SK-MEL-2 melanoma
KM12 colon = system: KM12 colon
MALME-3M melanoma = system: MALME-3M melanoma
CAKI-1 renal = system: CAKI-1 renal
HOP-62 NSCLC = system: HOP-62 NSCLC
MOLT-4 leukemia = system: MOLT-4 leukemia
HOP-92 NSCLC = system: HOP-92 NSCLC
ACHN renal = system: ACHN renal
786-0 renal = system: 786-0 renal
SF-539 CNS = system: SF-539 CNS
MCF7 breast = system: MCF7 breast
NCI-H522 lung = system: NCI-H522 lung
SK-OV-3 ovarian = system: SK-OV-3 ovarian
MDA-MB-231 breast = system: MDA-MB-231 breast
SW-620 colon = system: SW-620 colon
OVCAR-8 ovarian = system: OVCAR-8 ovarian
MDA-MB-435 = system: MDA-MB-435
BT-549 breast = system: BT-549 breast
NCI-H460 lung = system: NCI-H460 lung
SF-295 CNS = system: SF-295 CNS
NCI-H23 lung = system: NCI-H23 lung
RPMI-8226 leukemia = system: RPMI-8226 leukemia
A549 NSCLC = system: A549 NSCLC
U251 CNS = system: U251 CNS
SK-MEL-5 melanoma = system: SK-MEL-5 melanoma
K-562 leukemia = system: K-562 leukemia
SR leukemia = system: SR leukemia
NCI/ADR-RES ovarian = system: NCI/ADR-RES ovarian
SN12C renal = system: SN12C renal
SK-MEL-28 melanoma = system: SK-MEL-28 melanoma
NCI-H226 lung = system: NCI-H226 lung
EKVX NSCLC = system: EKVX NSCLC
HS 578T breast = system: HS 578T breast
SNB-19 CNS = system: SNB-19 CNS
HCC-2998 colon = system: HCC-2998 colon

Measured: TGI

Cc1ncc([N+](=O)[O-])n1CCNC(=O)CCC(=O)NCCCn1ccnc1[N+](=O)[O-]
not listed: SNB-19 CNS | HCC-2998 colon
> 100 µM: all other assays above

CCOC(=O)CC1C(O)C(=O)N(C)C1c1ccccc1 (centres undefined)
not listed: A498 renal | NCI-H460 lung
> 100 µM: all other assays above
